Assay results as given in ChEMBL document CHEMBL4627280, “Discovery of disubstituted xylylene derivatives as small molecule direct inhibitors of Keap1-Nrf2 protein-protein interaction” (Bioorg Med Chem, 2020).

Assays:
[1] = Metabolic stability in human liver microsomes assessed as parent compound remaining at 0.1 mM measured after 90 mins by LC/MS analysis; format: ADME, Microsome; settings: read-out: Stability
[2] = molecular target: Kelch-like ECH-associated protein 1 (Homo sapiens, UniProt Q14145); assay: Inhibition of FITC-LDEETGEFL-NH2 binding to recombinant human Keap1 Kelch domain (321 to 609 residues) expressed in Escherichia Coli BL21(DE3)pLysS cells centrifuged for 2 mins followed by 30 mins incubation under shaking condition by fluorescence polarization assay
Chain of Kelch-like ECH-associated protein 1 (Q14145 whole entry, the tested form may be a part): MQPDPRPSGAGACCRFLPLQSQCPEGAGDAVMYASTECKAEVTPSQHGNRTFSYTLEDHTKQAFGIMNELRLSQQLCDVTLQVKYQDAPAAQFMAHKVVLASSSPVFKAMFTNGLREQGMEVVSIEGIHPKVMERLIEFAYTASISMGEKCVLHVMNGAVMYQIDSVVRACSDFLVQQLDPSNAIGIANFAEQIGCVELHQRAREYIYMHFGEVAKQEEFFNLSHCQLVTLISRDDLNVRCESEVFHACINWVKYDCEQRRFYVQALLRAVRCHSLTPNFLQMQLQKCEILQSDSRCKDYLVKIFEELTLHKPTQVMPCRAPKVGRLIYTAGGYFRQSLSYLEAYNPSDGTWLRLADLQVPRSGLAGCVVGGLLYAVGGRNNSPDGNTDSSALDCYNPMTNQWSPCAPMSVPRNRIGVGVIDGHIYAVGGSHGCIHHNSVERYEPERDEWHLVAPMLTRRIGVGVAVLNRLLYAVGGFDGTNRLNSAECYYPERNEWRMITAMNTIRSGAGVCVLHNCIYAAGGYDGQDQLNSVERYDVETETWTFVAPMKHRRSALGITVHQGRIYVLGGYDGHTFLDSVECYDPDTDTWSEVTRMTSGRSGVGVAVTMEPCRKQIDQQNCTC

Compound: COc1ccc(S(=O)(=O)N(CC(=O)O)Cc2ccccc2CN(CC(=O)O)S(=O)(=O)c2ccc(OC)cc2)cc1
- remaining at 1.5 h, 100 µM [1]: 97.7%
- IC50 [2]: 2300 nM

Compound: COc1ccc(S(=O)(=O)N(Cc2ccccc2CN([C@@H](C)C(=O)O)S(=O)(=O)c2ccc(OC)cc2)[C@@H](C)C(=O)O)cc1
- remaining at 1.5 h, 100 µM [1]: 98.2%

Compound: COc1ccc(S(=O)(=O)N(CC(=O)O)c2ccc(N(CC(=O)O)S(=O)(=O)c3ccc(OC)cc3)c3ccccc23)cc1
- remaining at 1.5 h, 100 µM [1]: 56.9%
